This is an account of results in patent US20230089267A1, “Compositions and Methods For Reducing Immune Intolerance and Treating Autoimmune Disorders” (Lapix Therapeutics, Inc., priority 2021, published 2023).

The test system of the experiment is CD4+/Foxp3+ T-cells. In words: Foxp3 induction in human total PBMCs or sorted T-cells. The settings on record: 3 ng/ml; for percentage of CD4+/Foxp3+ T-cells: five days. The class given is cell-based. The procedure:
2×10^5 Total PBMCs or sorted T-cells (CD3^+) were cultured in 96-well plates in the presence of ascending doses of Compound 2 ranging from 0 to 3 ng/ml for five days. On day 5, cells were washed and stained for CD3 and CD4 for 30 minutes on ice, then cells were washed with PBS and stained with viability dye to exclude dead cells. Stained cells were fixed/permeabilized and further stained for Foxp3. Finally, cells were washed and fixed for acquisition by Attune NXT flow cytometer. Data were analyzed by FlowJov10.

Take `N[C@@H](CNC(=O)Cc1ccc(OCc2cccc3ccccc23)cc1)C(=O)O` [Compound 2, (S)-2-Amino-3-(2-(4-(naphthalen-1-ylmethoxy)phenyl)acetamido)propanoic acid]: the “percentage of CD4+/Foxp3+ T-cells” value (isolated T-cells (sorted)) is recorded as 2.27% and the “percentage of CD4+/Foxp3+ T-cells” value (total PBMC) is given as 5.2%. Also, the “increase of percentage of CD4+/Foxp3+ T-cells” value stood at 606% (isolated T-cells (sorted)) and 171% (total PBMC).
